Experimental data reported in patent US4057530A, “2-Phenyl-indole derivatives and process for preparing the same” (priority 1974, dated 1977).

Columns and labels:
[1] = Static thermostability of stabilized resin, simplified method (GARDNER sub-scale), Compound C; conditions: 210° C
Procedure: (§1) The stabilizing power of the substances of the invention was studied from two points of view:
(§2) These studies were performed with six different formulae of vinyl resins (hereinafter referred to as Compounds).
(§3) The different compounds were mixed and calendered in a mixer of which the cylinders were heated to 160° C. The rigid sheets so obtained were then heated in an oven to a temperature between 180° C and 215° C, until incipient carbonization.
(§4) A stove with rotating drums, ventilated and equipped with a thermostat was used for this operation. In the trials described hereunder, the behaviour of a sheet containing the stabilizer to be tested was compared to that of a sheet of the same formula but containing 2-phenyl-indole as stabilizer.
(§5) 2. It is also possible to use a simplified method which is more rapid and with which valid results are also obtained: a reference scale is drawn up with sheets of thermally treated polyvinyl chloride, of which the colourations have been definitely determined in GARDNER degrees as above. A GARDNER sub-scale is thus obtained in polyvinyl chloride sheets which can be directly compared to the sheets to be tested without using the comparator.

[2] = Static thermostability of stabilized resin, GARDNER Scale Comparator, Compound B; conditions: 210° C
Procedure: as §1, §2, §3, §4
1. The colouration of the sheets, of which samples were removed from the stove at fixed intervals was compared to a standard scale of colouration, known as the GARDNER Scale, and expressed in terms of the reference figures of the GARDNER Scale.
Comparisons were made with a GARDNER Scale Comparator which contains 18 filters of coloured glass and which offers the possibility of observing by transparency and in a limited field of view both the sheet and the reference filters.
Compound B was used and the sheets obtained presented the following characteristics: […]

[3] = Dynamic thermostability of stabilized resin on a plastograph, Compound C; conditions: Compounds C and F, 190° C
Procedure: The dynamic thermostability of resins containing respectively 2-(4'-dodecyloxy-phenyl)-indole and 2-phenyl-indole as stabilizers was compared by using the Compounds numbered hereunder:
No. 609: Compound C with 2-phenyl-indole as Stabilizer
No. 675: Compound C with Stabilizer 8
The tests were performed on a plastograph, working at a temperature of 190° C, turning at a speed of 60 r.p.m. and containing a charge of 30 g of gelled material.
Two curves were drawn namely:
a decomposition curve giving the value of the resistant torque (m kg) in relation to time.
From this curve, two important results were obtained: the minimal resistant torque and the time of decomposition.
a curve giving the self-heating time in relation to temperature.
The self-heating time is defined by the moment when the temperature of the sheet exceeds the temperature of the plastograph (190° C).

[4] = Thermostability of the stabilizers: thermogravimetric analysis; assay type: physicochemical
Procedure: The thermostability of Stabilizer 8 and that of 2-phenyl-indole were studied by differential thermoanalysis and by thermogravimetric analysis.
This analysis necessitated two series of trials carried out under air and under inert gas (Argon) in order to eliminate any possible effect of oxygen. The results obtained were identical.
The temperature increase rate was 80° C/hour. Thermograms were drawn up under air for both 2-phenyl-indole (i) and for Stabilizer 8 (ii) and enabled the following conclusion to be drawn: […]

[5] = Sublimation of the stabilizers; assay type: physicochemical; conditions: 120° C, 15 Torr, 150 min
Excerpt: A sample of the substance to be tested was introduced into a test tube and heated under reduced pressure. The fraction of sublimated substance was recovered on a mobile cold wall.
After a certain period of time, the sublimated substance was weighed and the result expressed as a percentage of the weight of the starting-material.
The results obtained can only be of relative value, enabling a comparison to be made between two products tested under the same conditions.
Operating conditions (chosen at random).
Temperature of heating 120° C
Temperature of the cold wall
Duration of heating 150 minutes

[6] = Acute toxicity by oral route in mice (LD50); assay type: in vivo; conditions: mouse, in vivo, gummy suspension
Procedure: (§6) The study of the acute toxicity of the stabilizers listed below was carried out by determining the dose of substance which provoked the death of 50% of the treated animals (LD50). A gummy suspension of the substance under study was administered by oral route to groups of at least ten mice and the following results were observed: […]

mice = assay: Acute toxicity by oral route in mice (LD50); assay type: in vivo; conditions: LD50 study
Procedure: as §6

[7] = Sticking of the stabilized material; conditions: cylinders at 210° C, 3 min mixing / 3 min rest
Procedure: Compounds Nos. 609 and 675 were placed in a mixer of the type previously used for studying static thermostability with cylinders at a fixed temperature of 210° C.
They were submitted to alternate periods of 3 minutes of mixing and 3 minutes of rest.

[8] = Static thermostability of stabilized resin, simplified method (GARDNER sub-scale), Compound D; conditions: 185° C
Procedure: as §1, §2, §3, §4, §5

[9] = Static thermostability of stabilized resin, simplified method (GARDNER sub-scale), Compound E; conditions: 185° C
Procedure: as §1, §2, §3, §4, §5

[10] = assay type: physicochemical
Excerpt: The thermostability of Stabilizer 8 and that of 2-phenyl-indole were studied by differential thermoanalysis and by thermogravimetric analysis. […] Diagrams were made out for 2-phenyl-indole (i) and Compound 8 (ii) and enabled the following conclusions to be drawn: […]

In the case of `CCCCCCCCCCCCOc1ccc(-c2cc3ccccc3[nH]2)cc1` [Stabilizer 8, 2-(4'-dodecyloxy-phenyl)-indole], the “Colouration of sheet (GARDNER sub-scale)” value ([1]; 0 min) is reported as 1 GARDNER degrees, the “Colouration of sheet (GARDNER sub-scale)” value ([1]; 10 min) is reported as 1.5 GARDNER degrees and the “Colouration of sheet (GARDNER sub-scale)” value ([1]; 20 min) is reported as 2 GARDNER degrees. The “Colouration of sheet (GARDNER sub-scale)” value ([1]; 30 min) was 2.5 GARDNER degrees, the “Colouration of sheet (GARDNER sub-scale)” value ([1]; 40 min) was less than 3 GARDNER degrees and the “Colouration of sheet (GARDNER sub-scale)” value ([1]; 50 min) was 3 GARDNER degrees. The “Colouration of sheet (GARDNER sub-scale)” value ([1]; 55 min) was 3 GARDNER degrees, the “Colouration of sheet (GARDNER sub-scale)” value ([1]; 60 min) was 3.5 GARDNER degrees and the “Static thermostability compared with 2-phenyl-indole” value ([1]; after 60 min) was “superior as a stabilizer to 2-phenyl-indole”. For the same compound, the “Colouration of sheet (GARDNER Scale)” value ([2]; 0 min) was 1 GARDNER degrees, the “Colouration of sheet (GARDNER Scale)” value ([2]; 3 min) was 1 GARDNER degrees and the “Colouration of sheet (GARDNER Scale)” value ([2]; 6 min) was 2 GARDNER degrees. The “Colouration of sheet (GARDNER Scale)” value ([2]; 9 min) was 3 GARDNER degrees, the “Colouration of sheet (GARDNER Scale)” value ([2]; 12 min) was 3 GARDNER degrees and the “Colouration of sheet (GARDNER Scale)” value ([2]; 15 min) was 5 GARDNER degrees. For the same compound, the “Colouration of sheet (GARDNER Scale)” value ([2]; 18 min) was 7 GARDNER degrees, the “Colouration of sheet (GARDNER Scale)” value ([2]; 21 min) was 11 GARDNER degrees and the “Static thermostability compared with 2-phenyl-indole” value ([2]; 21 min) was “clearly superior to 2-phenyl-indole”. The Thickness of sheet ([2]; after 21 min) was 1.30 mm, the State of sheet ([2]; after 24 min) was “burnt” and the “Dynamic thermostability compared with 2-phenyl-indole” value [3] was “slight superiority over 2-phenyl-indole”. For the same compound, the “Start of weight loss” value ([4]; 80° C/hour, under air) was “about 295 °C”, the “Thermostability of the stabilizer compared with 2-phenyl-indole” value ([4]; thermogravimetric analysis and differential thermoanalysis) was “greater thermostability than 2-phenyl-indole” and the “Sublimation relative to 2-phenyl-indole” value [5] was “forty times less than that of 2-phenyl-indole”. The “Percentage of sublimated substance” value ([5]; cold wall 13° C) was 0.6%, the LD50 [6] was greater than 5000 mg/kg and the Toxic symptoms (mice) was “none”. For the same compound, the “Sticking of the stabilized material” value [7] was “comparable”, the “Colouration given to the co-polymer” value [8] was “less yellow-coloured than that containing 2-phenyl-indole” and the “Static thermostability compared with 2-phenyl-indole” value [8] was “superior to 2-phenyl-indole”. The “Colouration of sheet (GARDNER sub-scale)” value ([8]; 0 min) was less than 1 GARDNER degrees, the “Colouration of sheet (GARDNER sub-scale)” value ([8]; 10 min) was less than 2 GARDNER degrees and the “Colouration of sheet (GARDNER sub-scale)” value ([8]; 20 min) was 2 GARDNER degrees. The “Colouration of sheet (GARDNER sub-scale)” value ([8]; 30 min) was less than 3 GARDNER degrees, the “Colouration of sheet (GARDNER sub-scale)” value ([9]; 0 min) was less than 1 GARDNER degrees and the “Colouration of sheet (GARDNER sub-scale)” value ([9]; 10 min) was less than 1 GARDNER degrees. For the same compound, the “Colouration of sheet (GARDNER sub-scale)” value ([9]; 20 min) was less than 2 GARDNER degrees, the “Colouration of sheet (GARDNER sub-scale)” value ([9]; 30 min) was less than 3 GARDNER degrees and the Melting temperature [10] was 203 °C. The Start of decomposition ([10]; 2° C/minute) was 300 °C.
